Data taken from article PMC7944402, “Resin-acid derivatives bind to multiple sites on the voltage-sensor domain of the Shaker potassium channel” (The Journal of General Physiology, 2021).

Experiments:
Shaker KV channel R362Q [1] = molecular target: T1, Shaker KV channel R362Q (Drosophila melanogaster, UniProt P08510, DEL6-46/R362Q); conditions: Fig. 1 E; ref Ottosson et al., 2017; Silverå Ejneby et al., 2018; cited from earlier work
T1 construct: expressed in transfected cells; host or cells: Xenopus laevis oocytes (RNA injection)
T1 sequence (P08510 other isoform, or with tags, fused parts or gaps DEL6-46/R362Q): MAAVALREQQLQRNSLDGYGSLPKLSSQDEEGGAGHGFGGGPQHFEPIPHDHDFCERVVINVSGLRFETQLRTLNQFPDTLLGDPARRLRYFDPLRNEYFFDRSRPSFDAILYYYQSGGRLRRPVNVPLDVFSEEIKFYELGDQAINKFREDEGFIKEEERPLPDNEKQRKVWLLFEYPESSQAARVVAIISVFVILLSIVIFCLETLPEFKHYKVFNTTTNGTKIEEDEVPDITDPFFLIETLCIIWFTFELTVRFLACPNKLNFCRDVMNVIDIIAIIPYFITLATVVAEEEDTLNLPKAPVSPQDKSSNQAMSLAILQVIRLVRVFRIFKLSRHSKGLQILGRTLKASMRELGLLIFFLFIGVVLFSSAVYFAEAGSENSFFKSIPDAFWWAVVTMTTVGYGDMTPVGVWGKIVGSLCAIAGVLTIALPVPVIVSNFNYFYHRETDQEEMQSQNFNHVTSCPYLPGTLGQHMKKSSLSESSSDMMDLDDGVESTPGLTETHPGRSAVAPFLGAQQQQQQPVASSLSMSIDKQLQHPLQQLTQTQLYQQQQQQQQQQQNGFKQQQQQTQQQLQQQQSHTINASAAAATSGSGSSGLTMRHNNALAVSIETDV

[2] = molecular target: T2, WT Shaker KV channel (ShH4IR) (Drosophila melanogaster, UniProt P08510, DEL6-46); assay: Two-electrode voltage clamp of Shaker KV channels expressed in Xenopus laevis oocytes: WT; format: cell-based; conditions: for EC50: WT, pH 7.4, concentration-response (Eq. 3), read-out: EC50 of the G(V) shift (apparent affinity)
T2 construct: expressed in transfected cells; host or cells: Xenopus laevis oocytes (RNA injection)
T2 sequence (P08510 other isoform, or with tags, fused parts or gaps DEL6-46): as the sequence (P08510 other isoform, or with tags, fused parts or gaps DEL6-46/R362Q) above, with Q321R counted along it
Text: (§1) The Shaker H4 channel (GenBank accession no. NM_167595.3; [Kamb et al., 1987]), with removed N-type inactivation due to a Δ6-46 deletion (ShH4IR, in Bluescript II KS(+) plasmid; [Hoshi et al., 1990]), is referred to as the WT Shaker KV channel. […] Therefore, we specifically refer to the two added arginines just outside S4 (M356R/A359R) as the 2R motif. Mutations were introduced with site-directed mutagenesis and verified with sequencing as described previously ([Börjesson et al., 2010]). RNA injection and oocyte handling were performed as before ([Börjesson et al., 2010]; [Ottosson et al., 2015]). All animal experiments were approved by the Linköping’s local Animal Care and Use Committee.
(§2) Electrophysiological experiments were made 1–6 d after RNA injection. K^+ currents were measured with the two-electrode voltage-clamp technique (GeneClamp 500B amplifier; Axon Instruments) as described previously ([Ottosson et al., 2015]; [Silverå Ejneby et al., 2018]). The amplifier’s leak compensation was used, and the currents were low-pass filtered at 5 kHz. The control solution contained (in mM) 88 NaCl, 1 KCl, 15 HEPES, 0.4 CaCl2, and 0.8 MgCl2, and pH was set with NaOH. All experiments were made at room temperature (20°C–23°C). The holding potential was set to −80 mV (or −100 mV if the mutant was not fully closed at −80 mV).
(§3) Stock solutions were stored at −20°C and diluted in control solution just before experiments. The test solution was added to the oocyte bath manually with a syringe. […] To make sure all Wu50 molecules were negatively charged, the pH of the control solution was set to 9.0 before the experiments.
(§4) The conductance, G(V), was calculated as G(V)=I/(V−VK), (1) where I is the steady-state current measured at the end of each test-voltage sweep (100 ms after onset; Clampfit 10.5; Molecular Devices), V is the absolute membrane voltage, and VK is the reversal potential for K^+ ions (set to −80 mV). The conductance was fitted with a Boltzmann equation (GraphPad Prism 5; GraphPad Software, Inc.) GK(V)=GMAX/{1+exp[(V½−V)/s]}, (2) where GMAX is the amplitude (maximal conductance) of the curve, V is the absolute membrane voltage, V1/2 is the midpoint, and s is the slope. The resin-acid–induced G(V) shift was calculated as V1/2 (compound) − V1/2 (control). The relative change in GMAX was calculated as GMAX (compound) / GMAX (control). The concentration dependence for the G(V) shifts was calculated as ΔV= ΔVMAX/(1 +EC50/c), (3) where ΔV is the voltage shift, ΔVMAX is the voltage shift at saturating concentration, c is the concentration of the tested compound, and EC50 is the concentration at which half-maximum response occurs.

[3] = molecular target: T3, Shaker KV channel with the 2R motif (M356R/A359R) (Drosophila melanogaster, UniProt P08510, A359R/DEL6-46/M356R); assay: Two-electrode voltage clamp in Xenopus oocytes: 2R motif channel; format: cell-based
T3 construct: expressed in transfected cells; host or cells: Xenopus laevis oocytes (RNA injection)
T3 sequence (P08510 other isoform, or with tags, fused parts or gaps DEL6-46/M356R/A359R): as the sequence (P08510 other isoform, or with tags, fused parts or gaps DEL6-46/R362Q) above, with M315R, A318R, Q321R counted along it
Text: as §1, §2, §3, §4

[4] = molecular target: T4, Shaker KV channel R362Q/R365Q (Drosophila melanogaster, UniProt P08510, DEL6-46/R362Q/R365Q); assay: Two-electrode voltage clamp in Xenopus oocytes: R362Q/R365Q; format: cell-based; conditions: 100 μM, pH 7.4, R362Q/R365Q
T4 construct: expressed in transfected cells; host or cells: Xenopus laevis oocytes (RNA injection)
T4 sequence (P08510 other isoform, or with tags, fused parts or gaps DEL6-46/R362Q/R365Q): as the sequence (P08510 other isoform, or with tags, fused parts or gaps DEL6-46/R362Q) above, with R324Q counted along it
Text: (§5) The Shaker H4 channel (GenBank accession no. NM_167595.3; [Kamb et al., 1987]), with removed N-type inactivation due to a Δ6-46 deletion (ShH4IR, in Bluescript II KS(+) plasmid; [Hoshi et al., 1990]), is referred to as the WT Shaker KV channel. Addition of two positively charged arginines (M356R/A359R) at the extracellular top of the voltage sensor increases the effect of charged lipophilic compounds ([Ottosson et al., 2014], [2015], [2017]). […] However, for the resin-acid derivatives studied in the present investigation, R362 reduced the effect. Therefore, we specifically refer to the two added arginines just outside S4 (M356R/A359R) as the 2R motif. Mutations were introduced with site-directed mutagenesis and verified with sequencing as described previously ([Börjesson et al., 2010]). RNA injection and oocyte handling were performed as before ([Börjesson et al., 2010]; [Ottosson et al., 2015]). All animal experiments were approved by the Linköping’s local Animal Care and Use Committee.
(§6) Electrophysiological experiments were made 1–6 d after RNA injection. K^+ currents were measured with the two-electrode voltage-clamp technique (GeneClamp 500B amplifier; Axon Instruments) as described previously ([Ottosson et al., 2015]; [Silverå Ejneby et al., 2018]). […]
as §4, with “The conductance was fitted with a Boltzmann equation (GraphPad Prism 5; GraphPad Software, Inc.) GK(V)=GMAX/{1+exp[(V½−V)/s]}, (2) where GMAX is the amplitude (maximal conductance) of the curve, V is the absolute membrane voltage, V1/2 is the midpoint, and s is the slope.” left out

[5] = molecular target: T5, Shaker KV channel R362Q/R365Q/W454A/F280I (Drosophila melanogaster, UniProt P08510, DEL6-46/F280I/R362Q/R365Q/W454A); assay: Two-electrode voltage clamp in Xenopus oocytes: R362Q/R365Q/W454A/F280I; format: cell-based; conditions: 100 μM, pH 7.4, R362Q/R365Q/W454A/F280I
T5 construct: expressed in transfected cells; host or cells: Xenopus laevis oocytes (RNA injection)
T5 sequence (P08510 other isoform, or with tags, fused parts or gaps DEL6-46/F280I/R362Q/R365Q/W454A): as the sequence (P08510 other isoform, or with tags, fused parts or gaps DEL6-46/R362Q) above, with F239I, R324Q, W413A counted along it
Text: as §5, with “Mutations were introduced with site-directed mutagenesis and verified with sequencing as described previously ([Börjesson et al., 2010]). RNA injection and oocyte handling were performed as before ([Börjesson et al., 2010]; [Ottosson et al., 2015]). All animal experiments were approved by the Linköping’s local Animal Care and Use Committee.” left out
as §6
The conductance, G(V), was calculated as G(V)=I/(V−VK), (1) where I is the steady-state current measured at the end of each test-voltage sweep (100 ms after onset; Clampfit 10.5; Molecular Devices), V is the absolute membrane voltage, and VK is the reversal potential for K^+ ions (set to −80 mV). […] The resin-acid–induced G(V) shift was calculated as V1/2 (compound) − V1/2 (control). The relative change in GMAX was calculated as GMAX (compound) / GMAX (control). […]

Shaker KV channel R362Q [6] = molecular target: T1, Shaker KV channel R362Q; assay: Two-electrode voltage clamp in Xenopus oocytes: R362Q; format: cell-based; conditions: 100 μM, pH 7.4, R362Q
Text: as §5, §6
as §4, with “The conductance was fitted with a Boltzmann equation (GraphPad Prism 5; GraphPad Software, Inc.) GK(V)=GMAX/{1+exp[(V½−V)/s]}, (2) where GMAX is the amplitude (maximal conductance) of the curve, V is the absolute membrane voltage, V1/2 is the midpoint, and s is the slope.” left out

Shaker KV channel W454A = molecular target: T6, Shaker KV channel W454A (Drosophila melanogaster, UniProt P08510, DEL6-46/W454A); assay: Two-electrode voltage clamp in Xenopus oocytes: W454A; format: cell-based; conditions: 100 μM, pH 7.4, W454A
T6 construct: expressed in transfected cells; host or cells: Xenopus laevis oocytes (RNA injection)
T6 sequence (P08510 other isoform, or with tags, fused parts or gaps DEL6-46/W454A): as the sequence (P08510 other isoform, or with tags, fused parts or gaps DEL6-46/R362Q) above, with Q321R, W413A counted along it
Text: as §5, §6
as §4, with “The conductance was fitted with a Boltzmann equation (GraphPad Prism 5; GraphPad Software, Inc.) GK(V)=GMAX/{1+exp[(V½−V)/s]}, (2) where GMAX is the amplitude (maximal conductance) of the curve, V is the absolute membrane voltage, V1/2 is the midpoint, and s is the slope.” left out

[7] = molecular target: T7, Shaker KV channel M356R/A359R/R362Q (Drosophila melanogaster, UniProt P08510, A359R/DEL6-46/M356R/R362Q); assay: Two-electrode voltage clamp in Xenopus oocytes: 2R motif/R362Q; format: cell-based; conditions: 100 μM, pH 7.4, M356R/A359R/R362Q
T7 construct: expressed in transfected cells; host or cells: Xenopus laevis oocytes (RNA injection)
T7 sequence (P08510 other isoform, or with tags, fused parts or gaps DEL6-46/M356R/A359R/R362Q): as the sequence (P08510 other isoform, or with tags, fused parts or gaps DEL6-46/R362Q) above, with M315R, A318R counted along it
Text: as §5, §2
as §3, with “the experiments. This pH change had only small effects on channel kinetics and the G(V) relation.” for “the experiments.”
as §4, with “The conductance was fitted with a Boltzmann equation (GraphPad Prism 5; GraphPad Software, Inc.) GK(V)=GMAX/{1+exp[(V½−V)/s]}, (2) where GMAX is the amplitude (maximal conductance) of the curve, V is the absolute membrane voltage, V1/2 is the midpoint, and s is the slope.” left out

[8] = test system: Shaker KV channel binding sites (S3/S4, S4/pore, residual); assay: Additive model of site contributions to the G(V) shift (least squares fit); parameters: species or system Drosophila melanogaster
Text: We also considered a reduced dataset of five mutants for Wu50 to make the comparison between the two compounds equitable (Table S1).
The G(V) shift for each mutant was expressed as a sum of contribution from the various sites: ΔVmodel=ΔVS3/S4+ΔVS4/pore+ΔVResidual, (4) where ΔVS3/S4 is the G(V) shift due to compound binding to the S3/S4 site, ΔVS4/pore is the G(V) shift due to compound binding to the S4/pore site, and ΔVResidual is the G(V) shift due to compound binding to other sites, including the top-VSD site.
Following the assumptions based on observations made using MD simulations, ΔVS3/S4 was set to 0 if the 2R motif was missing (i.e., in the WT channel), ΔVS4/pore could adopt one of four values depending on the type of mutation (R362/W454 = WT configuration, R362Q, W454A, or R362Q/W454A), and ΔVResidual was assumed to be the same for all mutants.
The model further assumed that there is a residual effect that can be due to binding to the VSD-top site or to any other unidentified site and that the contributions due to binding to the S3/S4 site and the S4/pore site depend upon mutations at this site.

[9] = molecular target: T8, Shaker KV channel R362Q/W454A/F416A (Drosophila melanogaster, UniProt P08510, DEL6-46/F416A/R362Q/W454A); assay: Two-electrode voltage clamp in Xenopus oocytes: R362Q/W454A/F416A; format: cell-based; conditions: 100 μM, pH 7.4, R362Q/W454A/F416A
T8 construct: expressed in transfected cells; host or cells: Xenopus laevis oocytes (RNA injection)
T8 sequence (P08510 other isoform, or with tags, fused parts or gaps DEL6-46/R362Q/F416A/W454A): as the sequence (P08510 other isoform, or with tags, fused parts or gaps DEL6-46/R362Q) above, with F375A, W413A counted along it
Text: as §5, §6
as §4, with “The conductance was fitted with a Boltzmann equation (GraphPad Prism 5; GraphPad Software, Inc.) GK(V)=GMAX/{1+exp[(V½−V)/s]}, (2) where GMAX is the amplitude (maximal conductance) of the curve, V is the absolute membrane voltage, V1/2 is the midpoint, and s is the slope.” left out

CC(C)c1ccc2c(c1)CC[C@H]1[C@](C)(C(=O)O)CCC[C@]21C [DHAA, dehydroabietic acid]
Change of the G(V)-shifting effect on neutralization of R362 (R362Q versus WT) (Shaker KV channel R362Q [1]): increase in effect

CO/N=C1\C[C@H]2[C@](C)(C(=O)O)CCC[C@]2(C)c2cc(Br)c(C(C)C)cc21 [Wu32]
Change of the G(V)-shifting effect on neutralization of R362 (R362Q versus WT) (Shaker KV channel R362Q [1]): increase in effect

C[C@@]1(COS(=O)(=O)O)CCC[C@]2(C)c3cc(Cl)c(Cl)c(Cl)c3CC[C@@H]12 [Wu181]
EC50 [2]: 1.6 ± 0.6 µM | Increase of the maximum G(V) shift by the 2R motif ([3]; 2R motif versus WT, Wu50 pH 9.0, Wu161 and Wu181 pH 7.4): 590% | ΔVMAX (maximum G(V) shift) ([3]; 2R motif, pH 7.4, concentration-response (Eq. 3)): −53.6 ± 4.0 mV

CC/C=C\C/C=C\C/C=C\C/C=C\C/C=C\C/C=C\CCC(=O)O [DHA, docosahexaenoic acid]
Change of the G(V)-shifting effect on neutralization of R362 (R362Q versus WT) (Shaker KV channel R362Q [1]): no noticeable change

CC(C)c1ccc2c(c1)CC[C@H]1[C@](C)(COS(=O)(=O)O)CCC[C@]21C [Wu161]
GMAX (rel.) [4]: 0.99 rel. | GMAX (rel.) [5]: 0.64 rel. | GMAX (rel.) (Shaker KV channel R362Q [6]): 1.05 rel. | GMAX (rel.) (Shaker KV channel W454A): 0.86 rel. | GMAX (rel.) [7]: 1.19 rel. | GMAX (rel.) ([2]; 100 μM, pH 7.4, WT): 1.03 rel. | EC50 [2]: 43.7 ± 6.3 µM | ΔVS3/S4 (contribution of the S3/S4 site in the presence of the 2R mutations) ([8]; five mutants): −17 mV | ΔVS4/pore, R362Q configuration ([8]; five mutants): 0 to −6 mV | ΔVS4/pore, WT S4/pore site ([8]; five mutants): −7 to −13 mV | ΔVS4/pore, W454A configuration ([8]; no clear difference between five-mutants and eight-mutants datasets): +2 to −6 mV | GMAX (rel.) [9]: 0.47 rel. | GMAX (rel.) ([3]; 100 μM, pH 7.4, M356R/A359R (=2R)): 1.20 rel. | EC50 ([3]; 2R motif, pH 7.4, concentration-response (Eq. 3), read-out: EC50 of the G(V) shift (apparent affinity)): 36.4 ± 9 µM
